In data set [1] the target is T1, G-protein coupled bile acid receptor 1 (Homo sapiens) (UniProt Q8TDU6).
T1 sequence (whole entry): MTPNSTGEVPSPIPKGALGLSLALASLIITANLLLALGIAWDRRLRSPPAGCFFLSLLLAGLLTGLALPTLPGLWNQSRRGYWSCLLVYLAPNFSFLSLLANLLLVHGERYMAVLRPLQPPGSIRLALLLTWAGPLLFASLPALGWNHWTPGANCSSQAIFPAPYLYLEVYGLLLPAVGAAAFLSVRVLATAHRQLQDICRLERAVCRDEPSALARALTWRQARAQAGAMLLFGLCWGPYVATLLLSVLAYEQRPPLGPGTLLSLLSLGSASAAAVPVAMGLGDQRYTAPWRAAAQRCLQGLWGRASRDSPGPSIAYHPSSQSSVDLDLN
In words: Agonist activity at TGR5 (unknown origin) transfected in HEK293 cells assessed as increase in intracellular calcium level in absence of extracellular calcium by Fura-2AM dye based fluorometric analysis. Particulars: filed as agonist, dose 0.5-0.67 mM. Format: functional, cell-based.

For data set [2], the target named is T1, G-protein coupled bile acid receptor 1 (Homo sapiens). In words: Agonist activity at TGR5 (unknown origin) transfected in HEK293 cells assessed as increase in intracellular calcium level at 0.5 to 0.67 mM in presence of Galphaq inhibitor, UBO-QIC and in absence of extracellular calcium by Fura-2AM dye based fluorometric analysis. The class given is functional, cell-based. Particulars: dose 0.5-0.67 mM.

Data set [3] deals with HEK293. The data set is described as follows: Induction of intracellular calcium level in human HEK293 cells at 0.5 to 0.67 mM in absence of extracellular calcium by Fura-2AM dye based fluorometric analysis. The class given is functional, cell-based. Particulars: dose 0.5-0.67 mM.
In data set [4] the test system is HEK293. The data set is described as follows: Cytotoxicity against human HEK293 cells transfected with TGR5 assessed as reduction in cell viability at 1 mM measured after 2.5 hrs by MTS assay. Particulars: hek293, 2.5 h, 1000 µM. Format: cell-based.
Data set [5] relates to HEK293. In words: Induction of intracellular calcium level in human HEK293 cells at 1 mM in absence of extracellular calcium by Fura-2AM dye based fluorometric analysis. Format: functional, cell-based.
Data set [6] concerns the target T1, G-protein coupled bile acid receptor 1 (Homo sapiens). The data set is described as follows: Agonist activity at TGR5 (unknown origin) transfected in HEK293 cells assessed as increase in intracellular calcium level at 1 mM in presence of Galphaq inhibitor, UBO-QIC and in absence of extracellular calcium by Fura-2AM dye based fluorometric analysis. The class given is functional, cell-based.

In data set [7] the test system is HEK293. The data set is described as follows: Induction of intracellular calcium level in human HEK293 cells at 0.1 mM in presence of Galphaq inhibitor, UBO-QIC and in absence of extracellular calcium by Fura-2AM dye based fluorometric analysis. The class given is functional, cell-based.
For data set [8], the target named is T1, G-protein coupled bile acid receptor 1 (Homo sapiens). The data set is described as follows: Agonist activity at TGR5 (unknown origin) transfected in HEK293 cells assessed as increase in intracellular calcium level at 0.1 mM in presence of Galphaq inhibitor, UBO-QIC and in absence of extracellular calcium by Fura-2AM dye based fluorometric analysis. As to conditions: filed as agonist. Format: functional, cell-based.

For data set [9] the target is unchanged. In words: Agonist activity at TGR5 (unknown origin) transfected in HEK293 cells assessed as increase in intracellular calcium level at 0.33 mM in presence of Galphaq inhibitor, UBO-QIC and in absence of extracellular calcium by Fura-2AM dye based fluorometric analysis. The class given is functional, cell-based.
For data set [10], the system named is HEK293. The data set is described as follows: Cytotoxicity against human HEK293 cells transfected with TGR5 assessed as reduction in cell viability at 0.67 mM measured after 2.5 hrs by MTS assay. Format: cell-based. Particulars: hek293, 2.5 h, 670 µM.
The target in data set [11] is T1, G-protein coupled bile acid receptor 1 (Homo sapiens). In words: Agonist activity at TGR5 (unknown origin) transfected in HEK293 cells assessed as increase in intracellular calcium level at 0.1 to 0.33 mM in absence of extracellular calcium by Fura-2AM dye based fluorometric analysis. The class given is functional, cell-based. Particulars: filed as agonist, dose 0.1-0.33 mM.

The test system of data set [12] is HEK293. The data set is described as follows: Cytotoxicity against human HEK293 cells transfected with TGR5 assessed as reduction in cell viability at 0.33 to 0.5 mM measured after 2.5 hrs by MTS assay. As to conditions: hek293, 2.5 h, 500 µM, dose 0.33-0.5 mM. The class given is cell-based.
The subject of data set [13] is HEK293. The data set is described as follows: Induction of intracellular calcium level in human HEK293 cells at 0.1 to 0.33 mM in absence of extracellular calcium by Fura-2AM dye based fluorometric analysis. The class given is functional, cell-based. Particulars: dose 0.1-0.33 mM.
In data set [14] the test system is HEK293. The data set is described as follows: Induction of intracellular calcium level in human HEK293 cells at 0.33 mM in presence of Galphaq inhibitor, UBO-QIC and in absence of extracellular calcium by Fura-2AM dye based fluorometric analysis. Format: functional, cell-based.

Calls of active or inactive are those of the source. The calls are words filed in the database; no cut-off is given here.

With `C[C@H](CC[C@H](O)C(CO)CO)[C@H]1CC[C@H]2[C@@H]3[C@H](O)C[C@@H]4C[C@H](O)CC[C@]4(C)[C@H]3C[C@H](O)[C@]12C`, the Activity result was “Dose-Dependent Effect” in data set [1] and “Toxic” in data set [4]. Moreover, the outcome in data set [2] and in data set [3] was inactive.

On to `C[C@H](CC[C@H](O)C(CO)COS(=O)(=O)O)[C@H]1CC[C@H]2[C@@H]3[C@H](O)C[C@@H]4C[C@H](O)CC[C@]4(C)[C@H]3C[C@H](O)[C@]12C` (some centres not stated), for which the result in data set [5] and in [6] was inactive. For the same molecule, the Activity entry in data set [4] is reported as “Non-Toxic”.

On to `C[C@H](CCC(=O)O)[C@H]1CC[C@H]2[C@@H]3CC[C@@H]4C[C@H](O)CC[C@]4(C)[C@H]3C[C@H](O)[C@]12C` [DEOXYCHOLIC ACID], for which the result in [7] and in [8] was Active. Also, the result in [9] and in data set [14] was inactive. Besides, the Activity entry is “Toxic” in data set [10], “Dose-Dependent Effect” in data set [11], “Toxic” in data set [12] and “Dose-Dependent Effect” in data set [13].

As to `C[C@H](CCC(=O)O)[C@H]1CC[C@H]2[C@@H]3[C@@H](O)C[C@@H]4C[C@H](O)CC[C@]4(C)[C@H]3CC[C@]12C` [URSODIOL], the result in data set [5] was inactive. Also, the Activity result in data set [4] is listed as “Non-Toxic”.

Source of the values: ChEMBL document CHEMBL4825672, “Marine Bile Natural Products as Agonists of the TGR5 Receptor” (J Nat Prod, 2021).
